According to US20240116845A1, “INDENE COMPOUNDS, PHARMACEUTICAL COMPOSITIONS THEREOF, AND THEIR THERAPEUTIC APPLICATIONS” (NucMito Pharmaceuticals Co., Ltd., priority 2021, published 2024):

What was measured:
Type in all cases: cell-based
[1] = test system: MDA-MB-231 (breast cancer); experiment: Antiproliferative activity, CCK-8 cell viability; settings: Homo sapiens, 72 h, read-out: Inhibition of Cancerous Cells, MDA-MB-231; for inhibition at 3.3 µM: compound concentration of 3.3 μM; for inhibition at 10 µM: compound concentration of 10 μM; for inhibition at 30 µM: compound concentration of 30 μM
Procedure: (§1) The antiproliferative activity of a compound was determined in the following cell lines: MDA-MB-231 (breast cancer), HepG2 (liver cancer), SW480 (colon cancer), B16F10 (malignant melanoma), A431 (epidermoid carcinoma), A549 (lung adenocarcinoma), and HeLa (cervical cancer). MDA-MB-231, HepG2, SW480, B16F10, and A431 cells were cultured in Dulbecco's modified Eagle's medium (DMEM) containing 10% fetal bovine serum (FBS). HeLa cells were cultured in MEM/EBSS (MEM) containing 10% FBS. A549 cells were maintained in Kaighn's modification of Ham's F-12 medium containing 10% FBS. The Cell Counting Kit-8 (CCK-8) assay was used to determine the cell viability of cells following treatment with the compound.
(§2) Briefly, cells were seeded in a 96-well plate at a density of 2,000-5,000 cells/well. Following attachment, the cells were treated with the compound in media at a compound concentration of 3.3 μM, 10 μM, or 30 μM, or DMSO as a control. After the cells were incubated at 37° C. for 72 h, the CCK-8 solution (10 μL) was added to each well. After incubation at 37° C. for 4 h, the absorbance value of each well was determined using a multi-well plate reader at 450 nm. The percentage of cell viability was determined with respect to the DMSO-treated cells. The results were summarized in Table 2-4 below, wherein A represents no less than 50% inhibition of cell growth; B represents less than 50% but no less than 30% inhibition of cell growth; C represents less than 30% inhibition of cell growth.

[2] = test system: B16F10 (malignant melanoma); experiment: Antiproliferative activity, CCK-8 cell viability; settings: Mus musculus, B16-F10, 72 h, read-out: Inhibition of Cancerous Cells, B16F10; for inhibition at 3.3 µM: compound concentration of 3.3 μM; for inhibition at 10 µM: compound concentration of 10 μM; for inhibition at 30 µM: compound concentration of 30 μM
Procedure: as §1, §2

[3] = test system: A549 (lung adenocarcinoma); experiment: Antiproliferative activity, CCK-8 cell viability; settings: Homo sapiens, 72 h, read-out: Inhibition of Cancerous Cells, A549; for inhibition at 3.3 µM: compound concentration of 3.3 μM; for inhibition at 10 µM: compound concentration of 10 μM; for inhibition at 30 µM: compound concentration of 30 μM
Procedure: as §1, §2

[4] = test system: HepG2 (liver cancer); experiment: Antiproliferative activity, CCK-8 cell viability; settings: Homo sapiens, 72 h, read-out: Inhibition of Cancerous Cells, HepG2; for inhibition at 3.3 µM: compound concentration of 3.3 μM; for inhibition at 10 µM: compound concentration of 10 μM; for inhibition at 30 µM: compound concentration of 30 μM
Procedure: as §1, §2

[5] = test system: HeLa (cervical cancer); experiment: Antiproliferative activity, CCK-8 cell viability; settings: Homo sapiens, 72 h, read-out: Inhibition of Cancerous Cells, HELA; for inhibition at 3.3 µM: compound concentration of 3.3 μM; for inhibition at 10 µM: compound concentration of 10 μM; for inhibition at 30 µM: compound concentration of 30 μM
Procedure: as §1, §2

[6] = test system: A431 (epidermoid carcinoma); experiment: Antiproliferative activity, CCK-8 cell viability; settings: Homo sapiens, A-431, 72 h, read-out: Inhibition of Cancerous Cells, A431; for inhibition at 3.3 µM: compound concentration of 3.3 μM; for inhibition at 10 µM: compound concentration of 10 μM; for inhibition at 30 µM: compound concentration of 30 μM
Procedure: as §1, §2

[7] = test system: SW480 (colon cancer); experiment: Antiproliferative activity, CCK-8 cell viability; settings: Homo sapiens, 72 h, read-out: Inhibition of Cancerous Cells, SW480; for inhibition at 3.3 µM: compound concentration of 3.3 μM; for inhibition at 10 µM: compound concentration of 10 μM; for inhibition at 30 µM: compound concentration of 30 μM
Procedure: as §1, §2

[8] = test system: alpha-smooth muscle actin (α-SMA); experiment: Inhibition of TGF-β induced expression of alpha-smooth muscle actin in CFSC cells (western blot); settings: compound at 10 μM, TGF-β (10 ng/mL), 24 hours
Procedure: The ability of a compound to inhibit the TGF-β induced expression of alpha-smooth muscle actin (α-SMA) was evaluated in CCl4-treated fat storing (CFSC) cells. α-SMA is considered as a reliable marker of hepatic stellate cell activation and a key biomarker for liver fibrosis.
CFSC cells maintained in a DMEM medium supplemented with 10% fetal bovine serum were seeded to 12-well culture dishes and grown to a confluence of 60-70% the next day. Culture was changed to a serum-free DMEM medium and the cells were treated with the compound at 10 μM in the presence of TGF-β (10 ng/mL). The cells were incubated for another 24 hours. All culture was maintained at 37° C. in 5% carbon dioxide.
An NP-40 lysate solution (50 mM Tris, pH 7.4, 150 mM NaCl, 1% NP-40) with EDTA free cocktail added was used to lyse the cells on ice for 30 min. The lysate was collected and centrifuged at 4° C. for 10 min at 12,000 rpm. The pellet was discarded and the supernatant was transferred to a new tube. The cell lysate was loaded with 5× loading buffer and boiled for 10 min, resolved by 10% SDS-polyacrylamide gel electrophoresis (SDS-PAGE), and transferred to a PVDF membrane. The membrane was blocked with 5% skim milk in Tris-buffered saline and TWEEN® 20 (TBST; 10 mM Tris-HCl, pH 8.0, 150 mM NaCl, 0.1% TWEEN® 20) for 1 h at room temperature and then incubated with α-SMA and β-actin antibodies overnight at 4° C. After washing twice with TBST, the membrane was probed with a […] anti-immunoglobulin (1:5000 dilution) for 1 h at room temperature. After two subsequent rinses in TBST, immunoreactive products were reacted with ECL and visualized by a UVP CHEMSTUDIO™ imaging system. The western blotting bands are quantitated using an ImageJ software. The percentage of inhibition was obtained by calculating the percentage decrease in the band intensity compared to the one treated with TGF-β only.
The results are summarized in Table 1, where A represents a value no less than 80/% inhibition, B represents a value less than 80% but no less than 50% inhibition, C represents a value less than 50% but no less than 30% inhibition, and D represents a value less than 30% inhibition with a compound at 10 μM.

CC1=C(CC(=O)O)c2c(F)cc(F)cc2/C1=C\c1ccc(Oc2ccc(F)cc2)cc1 [Compound D16, 2-[(1Z)-4,6-Difluoro-2-methyl-1-({4-[4-fluorophenoxy]phenyl}methylidene)-1H-inden-3-yl]acetic acid]
≥ 80%: inhibition at 10 µM [8]
< 30%: inhibition at 3.3 µM [2] | inhibition at 3.3 µM [3] | inhibition at 3.3 µM [5] | inhibition at 3.3 µM [6] | inhibition at 3.3 µM [7]
≥ 50%: inhibition at 3.3 µM [1] | inhibition at 10 µM [1] | inhibition at 30 µM [1] | inhibition at 30 µM [2] | inhibition at 30 µM [4] | inhibition at 30 µM [5] | inhibition at 30 µM [6] | inhibition at 30 µM [7]
30 to 50%: inhibition at 10 µM [2] | inhibition at 10 µM [3] | inhibition at 30 µM [3] | inhibition at 3.3 µM [4] | inhibition at 10 µM [4] | inhibition at 10 µM [5] | inhibition at 10 µM [6] | inhibition at 10 µM [7]

COc1ccc2c(c1)/C(=C\c1ccc(CN(C)c3ccccc3)cc1)C(C)=C2CC(=O)O [Compound A13, 2-[(1Z)-6-Methoxy-2-methyl-1-[(4-{[methyl(phenyl)amino]methyl}phenyl)-methylidene]-1H-inden-3-yl]acetic acid]
≥ 50%: inhibition at 30 µM [1] | inhibition at 30 µM [2] | inhibition at 30 µM [3] | inhibition at 3.3 µM [4] | inhibition at 10 µM [4] | inhibition at 30 µM [4] | inhibition at 30 µM [5] | inhibition at 3.3 µM [6] | inhibition at 10 µM [6] | inhibition at 30 µM [6] | inhibition at 3.3 µM [7] | inhibition at 30 µM [7]
30 to 50%: inhibition at 10 µM [1] | inhibition at 10 µM [2] | inhibition at 3.3 µM [3] | inhibition at 10 µM [3] | inhibition at 10 µM [5] | inhibition at 10 µM [7]
< 30%: inhibition at 3.3 µM [1] | inhibition at 3.3 µM [2] | inhibition at 3.3 µM [5]
≥ 80%: inhibition at 10 µM [8]

COc1cccc2c1C(CC(=O)O)=C(C)/C2=C/c1ccc(Oc2ccccc2)cc1 [Compound D28, 2-[(1Z)-4-Methoxy-1-(4-(phenoxy)benzylidene)-2-methyl-1H-inden-3-yl]-acetic acid]
30 to 50%: inhibition at 3.3 µM [1] | inhibition at 10 µM [1] | inhibition at 3.3 µM [2] | inhibition at 3.3 µM [3] | inhibition at 10 µM [3]
< 30%: inhibition at 3.3 µM [5] | inhibition at 10 µM [5] | inhibition at 30 µM [5]
≥ 50%: inhibition at 30 µM [1] | inhibition at 10 µM [2] | inhibition at 30 µM [2] | inhibition at 30 µM [3] | inhibition at 3.3 µM [4] | inhibition at 10 µM [4] | inhibition at 30 µM [4] | inhibition at 3.3 µM [6] | inhibition at 10 µM [6] | inhibition at 30 µM [6] | inhibition at 3.3 µM [7] | inhibition at 10 µM [7] | inhibition at 30 µM [7]
50 to 80%: inhibition at 10 µM [8]

CC1=C(CC(=O)O)c2cc(F)ccc2/C1=C\c1cccc(CN(C)c2ccccc2)c1 [Compound A16, 2-[(1Z)-5-Fluoro-2-methyl-1-[(3-{[methyl(phenyl)amino]methyl}phenyl)-methylidene]-1H-inden-3-yl]acetic acid]
≥ 50%: inhibition at 10 µM [1] | inhibition at 30 µM [1] | inhibition at 30 µM [2] | inhibition at 10 µM [3] | inhibition at 30 µM [3] | inhibition at 30 µM [4] | inhibition at 10 µM [5] | inhibition at 30 µM [5] | inhibition at 10 µM [6] | inhibition at 30 µM [6] | inhibition at 3.3 µM [7] | inhibition at 10 µM [7] | inhibition at 30 µM [7]
< 30%: inhibition at 3.3 µM [2] | inhibition at 10 µM [2] | inhibition at 3.3 µM [4] | inhibition at 3.3 µM [6]
≥ 80%: inhibition at 10 µM [8]
30 to 50%: inhibition at 3.3 µM [1] | inhibition at 3.3 µM [3] | inhibition at 10 µM [4] | inhibition at 3.3 µM [5]

CC1=C(CC(=O)O)c2cc(F)ccc2/C1=C\c1ccc(CN(C)c2ccccc2)cc1 [Compound A9, 2-[(1Z)-5-Fluoro-2-methyl-1-[(4-{[methyl(phenyl)amino]methyl}phenyl)-methylidene]-1H-inden-3-yl]acetic acid]
30 to 50%: inhibition at 3.3 µM [1] | inhibition at 10 µM [5]
≥ 80%: inhibition at 10 µM [8]
≥ 50%: inhibition at 10 µM [1] | inhibition at 30 µM [1] | inhibition at 3.3 µM [2] | inhibition at 10 µM [2] | inhibition at 30 µM [2] | inhibition at 3.3 µM [3] | inhibition at 10 µM [3] | inhibition at 30 µM [3] | inhibition at 30 µM [4] | inhibition at 30 µM [5] | inhibition at 10 µM [6] | inhibition at 30 µM [6] | inhibition at 3.3 µM [7] | inhibition at 10 µM [7] | inhibition at 30 µM [7]
< 30%: inhibition at 3.3 µM [4] | inhibition at 10 µM [4] | inhibition at 3.3 µM [5] | inhibition at 3.3 µM [6]
